Test results from ChEMBL document CHEMBL1145304 (Bioorg Med Chem Lett, 2006).

How the values were obtained:
[1] = target: Sodium-dependent noradrenaline transporter (Homo sapiens, UniProt P23975)
Description: Inhibition of [3H]NA reuptake at NA transporter in HEK293 cells

[2] = target: Sodium-dependent dopamine transporter (Homo sapiens, UniProt Q01959)
Description: Inhibition of [3H]DA reuptake at DA transporter in HEK293 cells

[3] = target: Sodium-dependent serotonin transporter (Homo sapiens, UniProt P31645); format: cell-based, HEK293
Chain of Sodium-dependent serotonin transporter (P31645 whole entry): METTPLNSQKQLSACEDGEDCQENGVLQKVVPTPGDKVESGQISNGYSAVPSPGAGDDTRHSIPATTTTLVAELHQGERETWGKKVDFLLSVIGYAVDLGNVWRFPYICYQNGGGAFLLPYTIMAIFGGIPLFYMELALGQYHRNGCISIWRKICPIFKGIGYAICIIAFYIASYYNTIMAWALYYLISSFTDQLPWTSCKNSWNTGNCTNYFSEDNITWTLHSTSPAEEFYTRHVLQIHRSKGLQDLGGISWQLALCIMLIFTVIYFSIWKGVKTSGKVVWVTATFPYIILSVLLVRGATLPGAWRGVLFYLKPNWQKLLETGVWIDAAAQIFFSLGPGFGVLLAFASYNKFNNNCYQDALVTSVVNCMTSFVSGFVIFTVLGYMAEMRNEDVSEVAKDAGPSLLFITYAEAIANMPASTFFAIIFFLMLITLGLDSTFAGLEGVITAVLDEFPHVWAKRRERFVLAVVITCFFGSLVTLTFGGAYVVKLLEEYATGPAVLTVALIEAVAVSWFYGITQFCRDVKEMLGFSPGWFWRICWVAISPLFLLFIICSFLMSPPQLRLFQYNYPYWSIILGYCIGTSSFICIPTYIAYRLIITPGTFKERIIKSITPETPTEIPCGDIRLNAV

Chain of Sodium-dependent dopamine transporter (Q01959 whole entry): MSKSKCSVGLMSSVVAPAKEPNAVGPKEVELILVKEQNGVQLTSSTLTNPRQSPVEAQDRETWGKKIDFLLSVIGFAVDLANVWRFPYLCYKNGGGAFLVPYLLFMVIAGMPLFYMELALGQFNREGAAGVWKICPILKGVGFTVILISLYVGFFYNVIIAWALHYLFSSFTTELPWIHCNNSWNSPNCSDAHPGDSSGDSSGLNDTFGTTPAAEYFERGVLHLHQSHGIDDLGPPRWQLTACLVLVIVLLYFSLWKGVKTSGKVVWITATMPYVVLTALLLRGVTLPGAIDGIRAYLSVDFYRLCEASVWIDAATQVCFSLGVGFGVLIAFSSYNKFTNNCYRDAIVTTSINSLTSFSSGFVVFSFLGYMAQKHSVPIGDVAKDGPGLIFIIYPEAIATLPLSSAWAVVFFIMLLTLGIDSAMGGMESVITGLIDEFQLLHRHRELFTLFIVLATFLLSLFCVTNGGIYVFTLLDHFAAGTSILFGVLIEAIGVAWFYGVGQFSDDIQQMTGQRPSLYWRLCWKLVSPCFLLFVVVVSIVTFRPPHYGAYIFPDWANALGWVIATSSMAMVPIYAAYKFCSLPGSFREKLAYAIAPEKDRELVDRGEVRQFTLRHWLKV
Chain of Sodium-dependent noradrenaline transporter (P23975 whole entry): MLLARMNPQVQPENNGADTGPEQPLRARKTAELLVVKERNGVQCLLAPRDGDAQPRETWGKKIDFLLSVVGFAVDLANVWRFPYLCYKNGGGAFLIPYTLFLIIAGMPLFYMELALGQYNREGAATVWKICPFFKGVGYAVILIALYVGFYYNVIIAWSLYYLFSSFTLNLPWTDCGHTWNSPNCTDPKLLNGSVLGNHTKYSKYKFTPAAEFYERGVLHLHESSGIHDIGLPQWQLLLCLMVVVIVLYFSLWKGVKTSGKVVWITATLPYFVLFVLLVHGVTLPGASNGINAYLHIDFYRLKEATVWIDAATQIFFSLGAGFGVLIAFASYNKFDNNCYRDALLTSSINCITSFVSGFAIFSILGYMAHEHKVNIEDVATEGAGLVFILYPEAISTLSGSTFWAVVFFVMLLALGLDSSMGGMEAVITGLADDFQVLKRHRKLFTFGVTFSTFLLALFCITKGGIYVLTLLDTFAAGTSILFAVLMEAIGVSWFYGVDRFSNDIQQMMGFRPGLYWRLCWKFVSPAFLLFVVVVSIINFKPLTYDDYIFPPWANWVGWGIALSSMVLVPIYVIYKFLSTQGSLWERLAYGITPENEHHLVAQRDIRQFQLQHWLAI

| Structure (SMILES) | IC50 [1] [nM] | IC50 [2] [nM] | IC50 [3] [nM] |
| --- | --- | --- | --- |
| Clc1ccccc1CC(c1cccnc1)N1CCNCC1 (centres undefined) | 75 | 9200 | 14 |
| CCOc1ccccc1CC(c1nccs1)N1CCNCC1 (centres undefined) | 340 |  | 39 |
| c1ccc(C(Cc2ccc3ccccc3c2)N2CCNCC2)cc1 (centres undefined) | > 400 |  | 17 |
| c1ccc(C(Cc2ccccn2)N2CCNCC2)cc1 (centres undefined) | > 400 |  | 230 |
| c1ccc(C(Cc2cccc3ccccc23)N2CCNCC2)cc1 (centres undefined) | > 400 |  | 12 |
| CCOc1ccccc1CC(c1cccnc1)N1CCNCC1 (centres undefined) | 15 | > 4000 | 46 |
| Clc1ccccc1CC(c1ccccc1)N1CCCNCC1 (centres undefined) | 76 |  | 42 |
| c1ccc(C(Cc2ccncc2)N2CCNCC2)cc1 (centres undefined) | > 400 |  | 38 |
| CCOc1ccccc1CC(c1cncs1)N1CCNCC1 (centres undefined) | 21 |  | 40 |
| c1ccc(CCC(Cc2ccccc2)N2CCNCC2)cc1 (centres undefined) | 48 | 400 | 23 |
| CCOc1ccccc1CC(c1ccccc1)N1CCCNCC1 (centres undefined) | 8.8 |  | 300 |
| Clc1ccccc1CC(c1cncs1)N1CCNCC1 (centres undefined) | 120 |  | 12 |
| c1ccc(CCC(c2ccccc2)N2CCNCC2)cc1 (centres undefined) | > 400 |  | 23 |
